Measured values: PubChem BioAssay AID200 (DTP/NCI, 2004)
Values joined by “and” are separate entries in the source; they are usually repeats but may differ in a detail not shown here. Equal entries are not always repeated. Inconclusive results and toxic doses are left out. Where a SMILES comes first, the peptide text is derived from it. [ ]: non-standard residue; d: D form. The star is where a group is joined. Cbz = O=C(OCc1ccccc1)*; Nva = CCC[CH](N)C(=O)O

System: B6C3F1 mice, B16 melanoma ip, median survival T/C
Experiment: NCI In Vivo Anticancer Drug Screen. Data for tumor model B16 Melanoma (intraperitoneal) in B6C3F1 mice
Settings: endpoint: median survival time, schedule: Q01DX009 (ip), higher = longer survival
In short: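 Mice bearing transplanted tumor were dosed with compound or vehicle, and survival was recorded. Activity is expressed as the treated-group measurement (T) divided by the vehicle control measurement (C).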

[1] = dose: 25.0 mg/kg/injection, vehicle: Klucel (hydroxypropylcellulose) (HPC)
[2] = dose: 50.0 mg/kg/injection, vehicle: Klucel (hydroxypropylcellulose) (HPC)
[3] = dose: 100.0 mg/kg/injection, vehicle: Klucel (hydroxypropylcellulose) (HPC)
[4] = dose: 200.0 mg/kg/injection, vehicle: Klucel (hydroxypropylcellulose) (HPC)
[5] = dose: 50.0 mg/kg/injection, vehicle: saline
[6] = dose: 100.0 mg/kg/injection, vehicle: saline
[7] = dose: 25.0 mg/kg/injection, vehicle: saline
[8] = dose: 12.5 mg/kg/injection, vehicle: saline with Tween-80
[9] = dose: 25.0 mg/kg/injection, vehicle: saline with Tween-80
[10] = dose: 50.0 mg/kg/injection, vehicle: saline with Tween-80
[11] = dose: 100.0 mg/kg/injection, vehicle: saline with Tween-80
[12] = dose: 200.0 mg/kg/injection, vehicle: saline with Tween-80
[13] = dose: 400.0 mg/kg/injection, vehicle: Klucel (hydroxypropylcellulose) (HPC)
[14] = dose: 1.25 mg/kg/injection, vehicle: saline
[15] = dose: 2.5 mg/kg/injection, vehicle: saline
[16] = dose: 5.0 mg/kg/injection, vehicle: saline

## NC(=S)c1ncn(C2OC(COC=O)C(OC=O)C2OC=O)c1NC=O (stereo unspecified)
[1]
  T/C: 100 % of control
[2]
  T/C: 100 % of control
[3]
  T/C: 92 % of control
[4]
  T/C: 87 % of control

## NC(N)=O
[5]
  T/C: 99 % of control
[6]
  T/C: 100 % of control
dose: 200.0 mg/kg/injection, vehicle: saline
  T/C: 106 % of control
dose: 400.0 mg/kg/injection, vehicle: saline
  T/C: 95 % of control

## CC(/C=N/N=C(N)N)=N\N=C(N)N
[7]
  T/C: 110 % of control
[5]
  T/C: 111 % of control
[6]
  T/C: 95 % of control

## CCCCC(NC(=O)OCc1ccccc1)C(=O)NC(Cc1c[nH]c2ccccc12)C(=O)O (stereo unspecified)
[4]
  T/C: 103 % of control

## CN1CCN(CN2C(=O)C3C4C=CC(C3C2=O)C2C3C(=O)N(CN5CCN(C)CC5)C(=O)C3C42)CC1 (stereo unspecified)
dose: 16.1 mg/kg/injection, vehicle: water
  T/C: 103 % of control
dose: 21.6 mg/kg/injection, vehicle: water
  T/C: 104 % of control
dose: 26.8 mg/kg/injection, vehicle: water
  T/C: 98 % of control
dose: 36.0 mg/kg/injection, vehicle: water
  T/C: 102 % of control
dose: 44.7 mg/kg/injection, vehicle: water
  T/C: 107 % of control
dose: 60.0 mg/kg/injection, vehicle: water
  T/C: 104 % of control
dose: 74.5 mg/kg/injection, vehicle: water
  T/C: 103 % of control
dose: 100.0 mg/kg/injection, vehicle: water
  T/C: 120 % of control

## O=C(Nc1ccccc1C(=O)O)c1cc([N+](=O)[O-])cc([N+](=O)[O-])c1
[8]
  T/C: 92 % of control
[9]
  T/C: 100 % of control
[10]
  T/C: 97 % of control
[11]
  T/C: 96 % of control

## O=C1NCC(Br)C(=O)N1 (stereo unspecified)
dose: 6.25 mg/kg/injection, vehicle: saline + Tween-80 + alcohol
  T/C: 90 % of control
dose: 12.5 mg/kg/injection, vehicle: saline + Tween-80 + alcohol
  T/C: 99 % of control and 101 % of control
[8]
  T/C: 102 % of control
dose: 25.0 mg/kg/injection, vehicle: saline + Tween-80 + alcohol
  T/C: 100 % of control and 106 % of control
[9]
  T/C: 94 % of control and 105 % of control
dose: 50.0 mg/kg/injection, vehicle: saline + Tween-80 + alcohol
  T/C: 114 % of control and 105 % of control
[10]
  T/C: 114 % of control
dose: 100.0 mg/kg/injection, vehicle: saline + Tween-80 + alcohol
  T/C: 109 % of control and 100 % of control
[11]
  T/C: 116 % of control
dose: 200.0 mg/kg/injection, vehicle: saline + Tween-80 + alcohol
  T/C: 96 % of control

## CC[C@]1(O)C[C@H]2CN(CCc3c([nH]c4ccccc34)[C@@](C(=O)OC)(c3cc4c(cc3OC)N(C=O)[C@H]3[C@@](O)(C(=O)OC)[C@H](OC(C)=O)[C@]5(CC)C=CCN6CC[C@]43[C@@H]65)C2)C1
dose: 0.06 mg/kg/injection, vehicle: saline
  T/C: 160 % of control
dose: 0.12 mg/kg/injection, vehicle: saline
  T/C: 159 % of control and 176 % of control
dose: 0.25 mg/kg/injection, vehicle: saline
  T/C: 171 % of control and 196 % of control
dose: 0.5 mg/kg/injection, vehicle: saline
  T/C: 190 % of control
dose: 0.5 mg/kg/injection, vehicle: water
  T/C: 108 % of control
dose: 31.25 micrograms/kg/injection, vehicle: water
  T/C: 154 % of control
dose: 62.5 micrograms/kg/injection, vehicle: water
  T/C: 186 % of control
dose: 125.0 micrograms/kg/injection, vehicle: water
  T/C: 193 % of control
dose: 250.0 micrograms/kg/injection, vehicle: water
  T/C: 227 % of control

## CCN(CC)CCNc1ccc(C)c2sc3ccc(O)cc3c(=O)c12
[10]
  T/C: 150 % of control
[11]
  T/C: 191 % of control

## Nc1n[n+](-c2ccccc2)no1
dose: 3.12 mg/kg/injection, vehicle: water
  T/C: 98 % of control
dose: 6.25 mg/kg/injection, vehicle: water
  T/C: 107 % of control
dose: 12.5 mg/kg/injection, vehicle: water
  T/C: 118 % of control

## COc1ccc(NC(=O)Oc2ccc3c(C)cc(=O)oc3c2)c(OC)c1
[9]
  T/C: 99 % of control
[10]
  T/C: 94 % of control
[11]
  T/C: 99 % of control
[12]
  T/C: 100 % of control
dose: 400.0 mg/kg/injection, vehicle: saline with Tween-80
  T/C: 98 % of control

## CC(C)CC(NC(=O)C(F)(F)F)C(=O)O (stereo unspecified)
[7]
  T/C: 89 % of control
[5]
  T/C: 91 % of control

## CCCC(NC(=O)OCc1ccccc1)C(=O)NC(CC(C)C)C(N)=O (stereo unspecified) (Cbz-[Nva]-Leu-NH2; configuration not given here)
[3]
  T/C: 98 % of control
[4]
  T/C: 94 % of control
[13]
  T/C: 97 % of control

## CC(C)C(NC(=O)OCC1c2ccccc2-c2ccccc21)C(=O)O (stereo unspecified)
[3]
  T/C: 91 % of control
[4]
  T/C: 91 % of control

## N#CCS(=O)(=O)c1cccc[n+]1[O-]
[9]
  T/C: 102 % of control
[10]
  T/C: 101 % of control
[11]
  T/C: 117 % of control
[12]
  T/C: 121 % of control

## Cc1cc(O)c2c(c1O)C(=O)C13C(=C2O)C(=O)C2C(O)C1C1C(O)C3C(=O)C3=C(O)c4c(O)cc(C)c(O)c4C(=O)C321 (stereo unspecified)
dose: 0.19 mg/kg/injection, vehicle: saline with Tween-80
  T/C: 109 % of control
dose: 0.2 mg/kg/injection, vehicle: saline with Tween-80
  T/C: 124 % of control
dose: 0.39 mg/kg/injection, vehicle: saline with Tween-80
  T/C: 114 % of control and 106 % of control
dose: 0.78 mg/kg/injection, vehicle: saline with Tween-80
  T/C: 117 % of control
dose: 1.56 mg/kg/injection, vehicle: saline with Tween-80
  T/C: 117 % of control

## CC(C)C1OC(=O)/C=C/C=C/C=C/C=C/C=C/CC(O)C(C)C(O)CC(O)CC(O)CC(O)CC(O)CC(O)CC(O)/C=C/C1C (stereo unspecified)
dose: 1.56 mg/kg/injection, vehicle: saline
  T/C: 101 % of control
dose: 3.12 mg/kg/injection, vehicle: saline
  T/C: 100 % of control
dose: 6.25 mg/kg/injection, vehicle: saline
  T/C: 102 % of control

## C1OC1C1CO1 (stereo unspecified)
[14]
  T/C: 92 % of control and 104 % of control
[15]
  T/C: 91 % of control and 101 % of control (2×)
[16]
  T/C: 113 % of control and 103 % of control and 105 % of control
dose: 10.0 mg/kg/injection, vehicle: saline
  T/C: 117 % of control and 122 % of control
dose: 20.0 mg/kg/injection, vehicle: saline
  T/C: 118 % of control and 121 % of control
dose: 40.0 mg/kg/injection, vehicle: saline
  T/C: 161 % of control

## O=C(c1cccnc1)c1cc(-c2ccccn2)c(=O)n2ccccc12
[9]
  T/C: 96 % of control
[10]
  T/C: 98 % of control
[11]
  T/C: 89 % of control

## CN(C)N=Nc1cccc(C(N)=O)c1
[5]
  T/C: 119 % of control
[6]
  T/C: 67 % of control

## CC1OC2CC(O)C1(O)C1=C2C(O)=C(C(N)=O)C(=N)C1=O (stereo unspecified)
dose: 0.31 mg/kg/injection, vehicle: saline
  T/C: 106 % of control
dose: 0.62 mg/kg/injection, vehicle: saline
  T/C: 98 % of control
[14]
  T/C: 104 % of control
[15]
  T/C: 98 % of control
[16]
  T/C: 102 % of control

## Nc1nc(-c2cccc([N+](=O)[O-])c2)c(Br)c(=O)[nH]1
[9]
  T/C: 115 % of control
[10]
  T/C: 122 % of control

## Cc1c(NS(=O)(=O)c2ccccc2)c(C)c(NS(=O)(=O)c2ccccc2)c(C)c1NS(=O)(=O)c1ccccc1
[8]
  T/C: 97 % of control
[9]
  T/C: 100 % of control
[10]
  T/C: 94 % of control

## CS(=O)(=O)OCCN(CCOS(C)(=O)=O)c1ccc(C=O)cc1
dose: 3.12 mg/kg/injection, vehicle: saline with Tween-80
  T/C: 151 % of control
dose: 6.25 mg/kg/injection, vehicle: saline with Tween-80
  T/C: 162 % of control
[8]
  T/C: 186 % of control

## Clc1ccc(C2SC=Cc3ccccc32)cc1 (stereo unspecified)
[1]
  T/C: 114 % of control
[2]
  T/C: 114 % of control
[3]
  T/C: 118 % of control
[4]
  T/C: 112 % of control
[13]
  T/C: 103 % of control
